Assay results as given in US6866861B1, “Method and composition for enhancing milk component concentrations” (Land O'Lakes, Inc., priority 1999, dated 2005).

Assays:
cows [1] = experiment: Abomasal infusion of glycerol on an on-off-on schedule, total solids in milk (Example 6, FIG. 3); type: in vivo; conditions: 150 g/cow/day abomasal weeks 1-3 and 7-9, water weeks 4-6; average of two cows
Description: FIG. 3 is a graph of the concentration of total solids in milk versus time when abomasally infusing glycerol into cattle in accordance with the method of the present invention. To determine the weight percent total solids, wet basis, in a sample, the actual weight of total solids is determined by analyzing the sample in accordance with Method #925.23 (33.2.09) of Official Methods of Analysis, Association of Official Analytical Chemists (AOAC) (16th Ed., 1995). The weight percent total solids, wet basis, is then calculated by dividing the actual weight of total solids by the actual weight of the sample. In Example 6, two cows were abomasally infused at the rate of 150 grams per cow per day of glycerol on an on-off-on schedule to determine whether there were any benefits to intermittently providing glycerol to the abomasum of the cattle. For each cow, glycerol was abomasally infused during weeks 1-3 and weeks 7-9, while water, and not glycerol, was abomasally infused into each cow during weeks 4-6. The results of this test are graphically depicted in FIG. 3 as the concentration, expressed as weight percent, of total solids in the milk produced by the cattle during the test period.

cows [2] = experiment: Abomasal infusion of glycerol in early lactation cows, milk component concentrations (Example 4); type: in vivo, cow; conditions: for Fat / Lactose / Total Solids / True Protein: 150 g/cow/day abomasal, average of 3 cows, early lactation
Description: To determine the weight percent total solids, wet basis, in a sample, the actual weight of total solids is determined by analyzing the sample in accordance with Method #925.23 (33.2.09) of Official Methods of Analysis, Association of Official Analytical Chemists (AOAC) (16th Ed., 1995). The weight percent total solids, wet basis, is then calculated by dividing the actual weight of total solids by the actual weight of the sample. The weight percent of true protein, wet basis, for a particular sample is calculated after first determining the wet basis weight percent of total Kjeldahl nitrogen and the wet basis weight percent of non-protein nitrogen in the sample. The wet basis weight percent of total Kjeldahl nitrogen in the sample is determined using the method referenced above. The wet basis weight percent of non-protein nitrogen (NPN) in the sample is determined in accordance with Method #991.21 (33.2.12) of Official Methods of Analysis, Association of Official Analytical Chemists (AOAC) (16th Ed., 1995). The weight percent of true protein, wet basis, in the sample is then determined by subtracting the wet basis weight percent of non-protein nitrogen in the sample from the wet basis weight percent of total Kjeldahl nitrogen in the sample. To determine the weight percent lactose, wet basis, in a liquid sample, the weight of the liquid sample is first determined. The actual weight of lactose in the liquid sample may then be determined using analysis kit number 176-303, that is available from Boehringer-Mannheim of Indianapolis, Ind. in accordance with the procedural instructions included with analysis kit number 176-303. The weight percent lactose, wet basis, in the liquid sample is then calculated by dividing the actual weight of lactose in the liquid sample by the actual weight of the liquid sample. To determine the weight percent fat, wet basis, in a sample, the actual weight of fat in the sample is determined in accordance with Method #974.09 (33.7.18) of Official Methods of Analysis, Association of Official Analytical Chemists (AOAC) (16th Ed., 1995). The weight percent fat, wet basis, is then calculated by dividing the actual weight of fat in the sample by the actual weight of the sample. In this example, glycerol was abomasally infused into three different cows at a rate of 150 grams per cow per day during a 14 day test period. The rations provided to the cows during the period extending from day 0, prior to abomasal infusion of glycerol, through day 14 of the test period were the same. The only difference in feeding of the cows between day 0 and days 1-14 of the test period were that during days 1-14 the cows were abomasally infused with the dosage of 150 grams of glycerol per cow per day. The glycerol was not combined with any other materials prior to being abomasally infused into the cattle. Milk from the three cows was collected and analyzed prior to infusion (on day 0) and also was collected and analyzed on the third, seventh and fourteenth day of the test period. The results presented in Table 4 below for each milk component for each particular day are averages for the milk collected from the three different cows. The net change for the different milk components presented in Table 4 was calculated by averaging the results of days 3, 7 and 14 for a particular milk component and subtracting the results presented for day 0 for the particular milk component. […] This increase in true protein concentration is particularly significant considering that the test cattle were in the early lactation phase (less than 90 days into milk production) when abomasally infused with glycerol. Typically, when being fed ordinary rations, the concentration of true protein in milk produced by lactating cattle decreases as the early lactation phase progresses.

[3] = abomasal infusion, early lactation phase
[4] = milk, average of days 3, 7, 14 minus day 0

Question: For `OCC(O)CO` [glycerol], which “weight percent of total solids in the milk (FIG. 3, in words)” value (cows [1]) is on record?
Answer: increased

Question: What about the “weight percent of fat in the milk (conclusion in words)” value (cows [2]; [3]) of the same compound?
Answer: substantially stabilized

Question: What about the “weight percent of total solids in the milk (conclusion in words)” value (cows [2]; [3]) of the same compound?
Answer: substantially stabilized

Question: What about the “weight percent of true protein in the milk (conclusion in words)” value (cows [2]; [3]) of the same compound?
Answer: net increase

Question: And the Fat (cows [2]; milk, Day 3)?
Answer: 3.80 Wt %

Question: And the Lactose (cows [2]; milk, Day 3)?
Answer: 4.78 Wt. %

Question: And the “Total Solids” value (cows [2]; milk, Day 3)?
Answer: 12.67 Wt. %

Question: What about the “True Protein” value (cows [2]; milk, Day 3) of the same compound?
Answer: 3.33 Wt. %

Question: And the Fat (cows [2]; milk, Day 7)?
Answer: 3.53 Wt %

Question: And the Lactose (cows [2]; milk, Day 7)?
Answer: 4.41 Wt. %

Question: And the “Total Solids” value (cows [2]; milk, Day 7)?
Answer: 12.04 Wt. %

Question: And the “True Protein” value (cows [2]; milk, Day 7)?
Answer: 3.32 Wt. %

Question: What about the Fat (cows [2]; milk, Day 14) of the same compound?
Answer: 3.68 Wt %

Question: And the Lactose (cows [2]; milk, Day 14)?
Answer: 4.51 Wt. %

Question: And the “Total Solids” value (cows [2]; milk, Day 14)?
Answer: 12.34 Wt. %

Question: What about the “True Protein” value (cows [2]; milk, Day 14) of the same compound?
Answer: 3.38 Wt. %

Question: And the “Fat, Net Change” value (cows [2]; [4])?
Answer: −0.11 Wt %

Question: What about the “Lactose, Net Change” value (cows [2]; [4]) of the same compound?
Answer: −0.07 Wt. %

Question: What about the “Total Solids, Net Change” value (cows [2]; [4]) of the same compound?
Answer: −0.05 Wt. %

Question: What about the “True Protein, Net Change” value (cows [2]; [4]) of the same compound?
Answer: +0.11 Wt. %

Question: What about the “decrease in the weight percent of lactose” value (cows [2]; milk, net change over test period) of the same compound?
Answer: 0.07%
